Assay results taken from patent US8940909B2, “Indicator platform” (Biosynth AG, priority 2009, dated 2015).

Test system: bacteria producing various biomarker enzymes
Assay: IO staining of colonies of bacteria producing various biomarker enzymes (Table IVc)
Format: cell-based
Settings: for F: Fluorescence of colonies (hue): hue of fluorescence of stained colonies, 24 h on agar containing the indicator (Table IVc)
[1] = Bacillus cereus strain 289, 24 h on Nutrient Agar, 0.52 mM C1-Esterase Indicator
[2] = Escherichia coli strain 270, 24 h on Nutrient Agar, 0.52 mM C1-Esterase Indicator
[3] = Klebsiella pneumoniae strain 164, 24 h on Nutrient Agar, 0.52 mM C1-Esterase Indicator
[4] = Escherichia coli strain 61, glucuronidase +, 24 h on Nutrient Agar, 0.45 mM beta-D-Glucuronidase Indicator
[5] = Escherichia coli strain 62, glucuronidase +, 24 h on Nutrient Agar, 0.45 mM beta-D-Glucuronidase Indicator
[6] = Escherichia coli strain 270, glucuronidase +, 24 h on Nutrient Agar, 0.45 mM beta-D-Glucuronidase Indicator
[7] = Klebsiella pneumoniae strain 164, glucuronidase −, 24 h on Nutrient Agar, 0.45 mM beta-D-Glucuronidase Indicator
[8] = Bacillus cereus strain 51, plc +, 24 h on Tryptic Soy Agar, 0.78 mM PC PLC Indicator, 3.2 g/l BSA, 0.05% Tween80, 5 mM MnCl2
[9] = Bacillus cereus strain 191, plc +, 24 h on Tryptic Soy Agar, 0.78 mM PC PLC Indicator, 3.2 g/l BSA, 0.05% Tween80, 5 mM MnCl2
[10] = Bacillus cereus strain 192, plc +, 24 h on Tryptic Soy Agar, 0.78 mM PC PLC Indicator, 3.2 g/l BSA, 0.05% Tween80, 5 mM MnCl2
[11] = Bacillus cereus strain 289, plc +, 24 h on Tryptic Soy Agar, 0.78 mM PC PLC Indicator, 3.2 g/l BSA, 0.05% Tween80, 5 mM MnCl2
[12] = Bacillus mycoides strain 64, plc +, 24 h on Tryptic Soy Agar, 0.78 mM PC PLC Indicator, 3.2 g/l BSA, 0.05% Tween80, 5 mM MnCl2
[13] = Bacillus thuringiensis strain 66, plc +, 24 h on Tryptic Soy Agar, 0.78 mM PC PLC Indicator, 3.2 g/l BSA, 0.05% Tween80, 5 mM MnCl2
[14] = Escherichia coli strain 61, plc +/−, 24 h on Tryptic Soy Agar, 0.78 mM PC PLC Indicator, 3.2 g/l BSA, 0.05% Tween80, 5 mM MnCl2
[15] = Escherichia coli strain 270, plc +/−, 24 h on Tryptic Soy Agar, 0.78 mM PC PLC Indicator, 3.2 g/l BSA, 0.05% Tween80, 5 mM MnCl2
[16] = Listeria monocytogenes (4b) strain 290, plc +, 24 h on Tryptic Soy Agar, 0.78 mM PC PLC Indicator, 3.2 g/l BSA, 0.05% Tween80, 5 mM MnCl2
[17] = Pseudomonas aeruginosa strain 168, plc +, 24 h on Tryptic Soy Agar, 0.78 mM PC PLC Indicator, 3.2 g/l BSA, 0.05% Tween80, 5 mM MnCl2
[18] = Pseudomonas aeruginosa strain 168, plc +, 24 h on Tryptic Soy Agar, 0.78 mM PC PLC Indicator, 3.2 g/l BSA, 0.05% Tween80, 5 mM MnCl2, natural color, same on agar without substrate
[19] = Pseudomonas aeruginosa strain 168, plc +, 24 h on Tryptic Soy Agar, 0.78 mM PC PLC Indicator, 3.2 g/l BSA, 0.05% Tween80, 5 mM MnCl2, natural fluorescence, same on agar without substrate
[20] = Enterobacter aerogenes strain 242, a-glucosidase −, 24 h on Nutrient Agar, 150 mg/l alpha-D-Glucosidase Indicator
[21] = Enterobacter cloacae strain 245, a-glucosidase −, 24 h on Nutrient Agar, 150 mg/l alpha-D-Glucosidase Indicator
[22] = Enterobacter sakazakii strain 141, a-glucosidase +, 24 h on Nutrient Agar, 150 mg/l alpha-D-Glucosidase Indicator
[23] = Enterobacter sakazakii strain 142, a-glucosidase +, 24 h on Nutrient Agar, 150 mg/l alpha-D-Glucosidase Indicator
[24] = Escherichia coli strain 270, a-glucosidase −, 24 h on Nutrient Agar, 150 mg/l alpha-D-Glucosidase Indicator
[25] = Shigella sonnei strain 133, a-glucosidase −, 24 h on Nutrient Agar, 150 mg/l alpha-D-Glucosidase Indicator

Compound: CC(=O)Oc1cn(-c2ccccc2C(=O)c2ccccc2)c2ccccc12 [Indicator I19c, 1-(2-Benzoylphenyl)-1H-indol-3-yl acetate]
- C: Color of colonies [1]: ++
- G: Growth of colonies [1]: +
- C: Color of colonies [2]: +/−
- G: Growth of colonies [2]: +
- C: Color of colonies [3]: +
- G: Growth of colonies [3]: +

Compound: O=C(c1ccccc1)c1ccccc1-n1cc(O[C@@H]2O[C@H](C(=O)[O-])[C@@H](O)[C@H](O)[C@H]2O)c2ccc(Cl)cc21.[Na+] [Indicator I21f, 1-(2-Benzoylphenyl)-6-chloro-1H-indol-3-yl-beta-D-glucuronide sodium salt]
- C: Color of colonies [4]: +
- F: Fluorescence of colonies [4]: +/−
- G: Growth of colonies [4]: +
- C: Color of colonies [5]: +
- F: Fluorescence of colonies [5]: +/−
- G: Growth of colonies [5]: +
- C: Color of colonies [6]: +
- F: Fluorescence of colonies [6]: +/−
- G: Growth of colonies [6]: +
- C: Color of colonies [7]: −
- F: Fluorescence of colonies [7]: −
- G: Growth of colonies [7]: +
- F: Fluorescence of colonies (hue): y-o

Compound: 1-[2-(2,4-Dimethoxybenzoyl)phenyl]-1H-indol-3-yl choline phosphate [Indicator I25d]
- C: Color of colonies [8]: +
- F: Fluorescence of colonies [8]: ++
- G: Growth of colonies [8]: +
- C: Color of colonies [9]: +
- F: Fluorescence of colonies [9]: ++
- G: Growth of colonies [9]: +
- C: Color of colonies [10]: ++
- F: Fluorescence of colonies [10]: ++
- G: Growth of colonies [10]: +
- C: Color of colonies [11]: +
- F: Fluorescence of colonies [11]: ++
- G: Growth of colonies [11]: +
- C: Color of colonies [12]: +
- F: Fluorescence of colonies [12]: ++
- G: Growth of colonies [12]: +
- C: Color of colonies [13]: +
- F: Fluorescence of colonies [13]: ++
- G: Growth of colonies [13]: +
- C: Color of colonies [14]: +/−
- F: Fluorescence of colonies [14]: +/−
- G: Growth of colonies [14]: +
- C: Color of colonies [15]: +/−
- F: Fluorescence of colonies [15]: +/−
- G: Growth of colonies [15]: +
- C: Color of colonies [16]: −
- F: Fluorescence of colonies [16]: −
- G: Growth of colonies [16]: +
- G: Growth of colonies [17]: +
- C: Color of colonies [18]: y-g^1
- F: Fluorescence of colonies [19]: b^2
- F: Fluorescence of colonies (hue): y-g

Compound: 5-Bromo-4-chloro-1H-indol-3-yl choline phosphate [Indicator I4d, reference compound]
- C: Color of colonies [8]: +/−
- F: Fluorescence of colonies [8]: −
- G: Growth of colonies [8]: +
- C: Color of colonies [9]: +/−
- F: Fluorescence of colonies [9]: −
- G: Growth of colonies [9]: +
- C: Color of colonies [10]: ++
- F: Fluorescence of colonies [10]: −
- G: Growth of colonies [10]: +
- C: Color of colonies [11]: −
- F: Fluorescence of colonies [11]: −
- G: Growth of colonies [11]: +
- C: Color of colonies [12]: +
- F: Fluorescence of colonies [12]: −
- G: Growth of colonies [12]: +
- C: Color of colonies [13]: +/−
- F: Fluorescence of colonies [13]: −
- G: Growth of colonies [13]: +
- C: Color of colonies [14]: +
- F: Fluorescence of colonies [14]: −
- G: Growth of colonies [14]: +
- C: Color of colonies [15]: +/−
- F: Fluorescence of colonies [15]: −
- G: Growth of colonies [15]: +
- C: Color of colonies [16]: −
- F: Fluorescence of colonies [16]: −
- G: Growth of colonies [16]: +
- G: Growth of colonies [17]: +
- C: Color of colonies [18]: y-g^1
- F: Fluorescence of colonies [19]: b^2
- F: Fluorescence of colonies (hue): −

Compound: O=C(c1ccccc1)c1ccccc1-n1cc(O[C@H]2O[C@H](CO)[C@@H](O)[C@H](O)[C@H]2O)c2ccc(Cl)cc21 [Indicator I21e, 1-(2-Benzoylphenyl)-6-chloro-1H-indol-3-yl-alpha-D-glucopyranoside]
- C: Color of colonies [20]: −
- F: Fluorescence of colonies [20]: −
- G: Growth of colonies [20]: +
- C: Color of colonies [21]: −
- F: Fluorescence of colonies [21]: −
- G: Growth of colonies [21]: +
- C: Color of colonies [22]: +
- F: Fluorescence of colonies [22]: +/−
- G: Growth of colonies [22]: +
- C: Color of colonies [23]: +
- F: Fluorescence of colonies [23]: +/−
- G: Growth of colonies [23]: +
- C: Color of colonies [24]: −
- F: Fluorescence of colonies [24]: −
- G: Growth of colonies [24]: +
- C: Color of colonies [25]: −
- F: Fluorescence of colonies [25]: −
- G: Growth of colonies [25]: +
- F: Fluorescence of colonies (hue): y-g

Compound: O=C([O-])[C@H]1O[C@@H](Oc2c[nH]c3cc(Cl)ccc23)[C@H](O)[C@@H](O)[C@@H]1O.[Na+] [Indicator I3f, 6-Chloro-1H-indol-3-yl-beta-D-glucuronide sodium salt, reference compound]
- C: Color of colonies [4]: +
- F: Fluorescence of colonies [4]: −
- G: Growth of colonies [4]: +
- C: Color of colonies [5]: +
- F: Fluorescence of colonies [5]: −
- G: Growth of colonies [5]: +
- C: Color of colonies [6]: +
- F: Fluorescence of colonies [6]: −
- G: Growth of colonies [6]: +
- C: Color of colonies [7]: −
- F: Fluorescence of colonies [7]: −
- G: Growth of colonies [7]: +

Compound: CC(=O)Oc1c[nH]c2ccc(Br)c(Cl)c12 [Indicator I4c, 5-Bromo-4-chloro-1H-indol-3-yl acetate, reference compound]
- C: Color of colonies [1]: −
- F: Fluorescence of colonies [1]: −
- G: Growth of colonies [1]: −
- C: Color of colonies [2]: −
- F: Fluorescence of colonies [2]: −
- G: Growth of colonies [2]: +/−
- C: Color of colonies [3]: +
- F: Fluorescence of colonies [3]: −
- G: Growth of colonies [3]: +
- F: Fluorescence of colonies (hue): −
